The record followed here is ChEMBL document CHEMBL2150882, “Discovery of a new molecular probe ML228: an activator of the hypoxia inducible factor (HIF) pathway” (Bioorg Med Chem Lett, 2012).

The target in series [1] is Mu-type opioid receptor (Homo sapiens) (UniProt P35372). The series can be described thus: Inhibition of human mu opioid receptor at 10 uM by radioligand displacement assay.
The species named for series [2] is Homo sapiens. The series can be described thus: Inhibition of human melatonin MT1 receptor at 10 uM by radioligand displacement assay. A general note: Displacement assays read how much labelled ligand stays bound in the presence of the test substance.
The target in series [3] is Histamine H1 receptor (Homo sapiens) (UniProt P35367). Description: Inhibition of human histamine H1 receptor at 10 uM by radioligand displacement assay.
In series [4] the target is Sodium-dependent noradrenaline transporter (Homo sapiens) (UniProt P23975). The series can be described thus: Inhibition of human NET at 10 uM by radioligand displacement assay.
Series [5] deals with 5-hydroxytryptamine receptor 2B (Homo sapiens) (UniProt P41595). The series can be described thus: Inhibition of human 5HT2B at 10 uM by radioligand displacement assay.
The subject of series [6] is U2OS. The series can be described thus: Cytotoxicity against human U2OS cells expressing human HIF1alpha by CellTiterGlo assay in presence of 50 uM iron. In kind it is cell-based.
The target of series [7] is Prostaglandin E2 receptor EP4 subtype (Homo sapiens) (UniProt P35408). Description: Inhibition of human prostanoid EP4 receptor at 10 uM by radioligand displacement assay.
Series [8] concerns the target T1, Adenosine receptor A3 (Homo sapiens) (UniProt P0DMS8).
T1 sequence (whole entry): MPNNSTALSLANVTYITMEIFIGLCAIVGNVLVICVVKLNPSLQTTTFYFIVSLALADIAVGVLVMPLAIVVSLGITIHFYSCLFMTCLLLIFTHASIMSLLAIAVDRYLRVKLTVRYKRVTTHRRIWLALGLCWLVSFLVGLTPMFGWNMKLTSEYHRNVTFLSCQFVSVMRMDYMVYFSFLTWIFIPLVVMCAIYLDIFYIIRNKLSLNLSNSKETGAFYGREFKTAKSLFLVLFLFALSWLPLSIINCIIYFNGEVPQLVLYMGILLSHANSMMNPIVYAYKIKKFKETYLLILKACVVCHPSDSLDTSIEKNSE
Description: Inhibition of human adenosine receptor A3 at 10 uM by radioligand displacement assay.

The nature of series [9]: Inhibition of proteasome chymotrypsin-like activity using Suc-LLVY-aminoluciferin as substrate by luciferase-coupled assay. In kind it is subcellular.
The target of series [10] is T2, Alpha-2A adrenergic receptor (Homo sapiens) (UniProt P08913).
T2 sequence (whole entry): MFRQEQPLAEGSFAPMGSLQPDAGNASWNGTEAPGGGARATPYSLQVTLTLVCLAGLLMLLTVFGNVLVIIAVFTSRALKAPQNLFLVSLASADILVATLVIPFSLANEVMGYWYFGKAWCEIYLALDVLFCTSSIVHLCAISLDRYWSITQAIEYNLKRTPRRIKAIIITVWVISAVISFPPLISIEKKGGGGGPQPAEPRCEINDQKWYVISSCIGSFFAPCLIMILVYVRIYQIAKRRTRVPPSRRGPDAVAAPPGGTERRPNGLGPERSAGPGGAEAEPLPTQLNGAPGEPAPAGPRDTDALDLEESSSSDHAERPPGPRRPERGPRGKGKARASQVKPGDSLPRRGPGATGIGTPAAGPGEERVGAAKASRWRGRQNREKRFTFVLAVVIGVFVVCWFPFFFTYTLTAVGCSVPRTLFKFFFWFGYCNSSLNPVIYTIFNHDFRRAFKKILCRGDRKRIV
Description: Inhibition of human alpha2A adrenergic receptor at 10 uM by radioligand displacement assay.

The target in series [11] is D(1A) dopamine receptor (Homo sapiens) (UniProt P21728). The series can be described thus: Inhibition of human dopamine D1 receptor at 10 uM by radioligand displacement assay.
The target in series [12] is hERG (KCNH2) (Homo sapiens, UniProt Q12809). The series can be described thus: Inhibition of human ERG at 10 uM by radioligand displacement assay.
The species named for series [13] is Rattus norvegicus. The series can be described thus: Inhibition of rat sodium channel site 2 at 10 uM by radioligand displacement assay.
The test system of series [14] is U2OS. The series can be described thus: Cytotoxicity against human U2OS cells expressing human HIF1alpha by CellTiterGlo assay in presence of 50 uM zinc. In kind it is cell-based.
Series [15] concerns the target Kappa-type opioid receptor (Homo sapiens) (UniProt P41145). The series can be described thus: Inhibition of human kappa opioid receptor at 10 uM by radioligand displacement assay.
Series [16] has as its target Sodium-dependent dopamine transporter (Homo sapiens) (UniProt Q01959). The series can be described thus: Inhibition of human DAT at 10 uM by radioligand displacement assay.
Series [17] concerns the target D(3) dopamine receptor (Homo sapiens) (UniProt P35462). The series can be described thus: Inhibition of human dopamine D3 receptor at 10 uM by radioligand displacement assay.
Series [18] is filed under the species Rattus norvegicus. The series can be described thus: Inhibition of rat L-type calcium channel dihydropyridine binding site at 10 uM by radioligand displacement assay.
Series [19] addresses T3, Alpha-1D adrenergic receptor (Homo sapiens) (UniProt P25100).
T3 sequence (whole entry): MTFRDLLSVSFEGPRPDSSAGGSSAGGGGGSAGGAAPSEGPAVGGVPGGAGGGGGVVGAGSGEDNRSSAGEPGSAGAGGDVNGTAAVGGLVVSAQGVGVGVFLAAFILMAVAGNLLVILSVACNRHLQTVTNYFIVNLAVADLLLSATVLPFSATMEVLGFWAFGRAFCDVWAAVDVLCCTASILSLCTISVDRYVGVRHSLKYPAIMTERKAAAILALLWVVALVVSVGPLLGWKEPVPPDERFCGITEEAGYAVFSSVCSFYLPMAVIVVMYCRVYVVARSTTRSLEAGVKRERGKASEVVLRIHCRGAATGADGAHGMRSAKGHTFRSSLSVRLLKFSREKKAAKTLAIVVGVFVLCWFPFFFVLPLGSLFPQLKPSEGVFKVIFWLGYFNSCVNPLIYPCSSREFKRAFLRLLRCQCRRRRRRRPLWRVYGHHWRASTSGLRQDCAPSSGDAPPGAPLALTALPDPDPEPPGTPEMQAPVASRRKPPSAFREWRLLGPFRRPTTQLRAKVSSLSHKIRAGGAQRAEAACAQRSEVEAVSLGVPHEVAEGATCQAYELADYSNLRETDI
The series can be described thus: Inhibition of human alpha1D adrenergic receptor at 10 uM by radioligand displacement assay.

Activity calls are given as the source filed them. The rule behind the calls is not given here.

Mu-type opioid receptor (Homo sapiens), sequence (P35372 whole entry): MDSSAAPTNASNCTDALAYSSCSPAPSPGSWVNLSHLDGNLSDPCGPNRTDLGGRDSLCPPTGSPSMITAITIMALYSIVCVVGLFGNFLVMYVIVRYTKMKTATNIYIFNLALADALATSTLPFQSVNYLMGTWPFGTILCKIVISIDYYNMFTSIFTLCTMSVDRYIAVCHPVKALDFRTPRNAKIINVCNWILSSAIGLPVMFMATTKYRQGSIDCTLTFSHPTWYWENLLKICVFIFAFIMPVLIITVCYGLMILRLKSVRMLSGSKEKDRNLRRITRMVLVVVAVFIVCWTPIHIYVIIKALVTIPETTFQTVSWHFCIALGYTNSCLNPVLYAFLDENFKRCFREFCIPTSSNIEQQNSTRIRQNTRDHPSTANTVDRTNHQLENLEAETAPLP
Histamine H1 receptor (Homo sapiens), sequence (P35367 whole entry): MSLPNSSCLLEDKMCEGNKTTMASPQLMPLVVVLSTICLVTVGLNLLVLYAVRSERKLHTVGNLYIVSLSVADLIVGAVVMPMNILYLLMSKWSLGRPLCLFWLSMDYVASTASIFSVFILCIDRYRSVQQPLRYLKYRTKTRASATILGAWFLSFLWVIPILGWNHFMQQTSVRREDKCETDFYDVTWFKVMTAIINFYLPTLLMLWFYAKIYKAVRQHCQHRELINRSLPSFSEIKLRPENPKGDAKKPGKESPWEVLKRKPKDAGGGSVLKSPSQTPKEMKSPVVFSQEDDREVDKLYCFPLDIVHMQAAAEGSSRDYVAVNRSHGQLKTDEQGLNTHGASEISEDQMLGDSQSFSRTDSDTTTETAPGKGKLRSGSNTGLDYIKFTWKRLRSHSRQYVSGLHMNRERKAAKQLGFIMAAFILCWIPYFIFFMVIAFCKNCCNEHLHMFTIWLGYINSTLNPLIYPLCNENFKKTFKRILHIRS
Kappa-type opioid receptor (Homo sapiens), sequence (P41145 whole entry): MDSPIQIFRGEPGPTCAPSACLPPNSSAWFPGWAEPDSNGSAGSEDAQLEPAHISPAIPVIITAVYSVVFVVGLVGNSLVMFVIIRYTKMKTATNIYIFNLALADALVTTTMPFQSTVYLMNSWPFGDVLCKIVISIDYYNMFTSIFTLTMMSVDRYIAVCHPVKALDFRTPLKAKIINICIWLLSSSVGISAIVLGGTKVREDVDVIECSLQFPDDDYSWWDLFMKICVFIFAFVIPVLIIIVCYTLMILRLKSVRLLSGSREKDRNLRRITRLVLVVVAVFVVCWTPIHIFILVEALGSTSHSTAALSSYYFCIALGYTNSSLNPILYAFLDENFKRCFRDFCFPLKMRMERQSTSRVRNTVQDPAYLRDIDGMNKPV
5-hydroxytryptamine receptor 2B (Homo sapiens), sequence (P41595 whole entry): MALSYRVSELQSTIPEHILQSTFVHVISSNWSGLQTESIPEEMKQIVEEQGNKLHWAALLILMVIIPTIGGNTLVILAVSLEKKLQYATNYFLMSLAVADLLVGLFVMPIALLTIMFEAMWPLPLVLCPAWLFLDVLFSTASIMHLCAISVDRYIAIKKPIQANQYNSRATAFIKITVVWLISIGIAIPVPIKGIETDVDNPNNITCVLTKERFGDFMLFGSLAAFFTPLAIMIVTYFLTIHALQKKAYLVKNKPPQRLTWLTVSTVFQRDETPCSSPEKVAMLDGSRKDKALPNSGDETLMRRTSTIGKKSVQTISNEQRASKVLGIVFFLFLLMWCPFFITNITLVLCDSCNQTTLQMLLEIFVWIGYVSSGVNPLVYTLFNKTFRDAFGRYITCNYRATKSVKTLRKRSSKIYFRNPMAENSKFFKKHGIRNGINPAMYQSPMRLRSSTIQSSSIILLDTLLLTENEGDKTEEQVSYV
hERG (KCNH2), sequence (Q12809 whole entry): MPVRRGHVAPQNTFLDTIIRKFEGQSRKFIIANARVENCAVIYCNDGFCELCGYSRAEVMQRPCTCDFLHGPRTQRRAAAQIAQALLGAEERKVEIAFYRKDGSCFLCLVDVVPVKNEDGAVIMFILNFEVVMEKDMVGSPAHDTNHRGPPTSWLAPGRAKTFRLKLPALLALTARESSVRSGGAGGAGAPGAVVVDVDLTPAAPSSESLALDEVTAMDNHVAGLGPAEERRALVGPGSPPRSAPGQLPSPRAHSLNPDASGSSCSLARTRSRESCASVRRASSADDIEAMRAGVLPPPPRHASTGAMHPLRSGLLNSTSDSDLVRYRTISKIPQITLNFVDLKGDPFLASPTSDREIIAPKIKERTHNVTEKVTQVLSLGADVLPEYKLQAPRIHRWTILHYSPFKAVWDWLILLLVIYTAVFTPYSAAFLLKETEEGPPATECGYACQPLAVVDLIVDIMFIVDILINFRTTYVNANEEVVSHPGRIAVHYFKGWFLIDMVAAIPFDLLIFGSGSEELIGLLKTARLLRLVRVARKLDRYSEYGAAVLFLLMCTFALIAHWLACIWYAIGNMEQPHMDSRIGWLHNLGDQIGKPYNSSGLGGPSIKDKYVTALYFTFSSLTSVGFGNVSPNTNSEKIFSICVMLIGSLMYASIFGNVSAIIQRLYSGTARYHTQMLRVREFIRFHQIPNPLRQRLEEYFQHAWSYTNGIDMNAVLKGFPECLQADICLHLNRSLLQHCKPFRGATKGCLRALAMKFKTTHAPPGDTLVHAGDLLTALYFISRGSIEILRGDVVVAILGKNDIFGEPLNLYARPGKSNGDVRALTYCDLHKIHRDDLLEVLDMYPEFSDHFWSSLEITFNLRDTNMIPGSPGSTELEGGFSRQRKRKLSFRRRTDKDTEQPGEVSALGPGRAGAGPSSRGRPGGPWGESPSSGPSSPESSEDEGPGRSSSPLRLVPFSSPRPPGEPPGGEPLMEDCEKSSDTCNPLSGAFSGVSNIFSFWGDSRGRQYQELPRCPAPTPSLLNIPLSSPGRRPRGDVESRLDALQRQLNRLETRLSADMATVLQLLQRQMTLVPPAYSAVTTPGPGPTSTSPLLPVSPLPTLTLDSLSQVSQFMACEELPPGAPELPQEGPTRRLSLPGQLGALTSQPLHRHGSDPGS
Sodium-dependent noradrenaline transporter (Homo sapiens), sequence (P23975 whole entry): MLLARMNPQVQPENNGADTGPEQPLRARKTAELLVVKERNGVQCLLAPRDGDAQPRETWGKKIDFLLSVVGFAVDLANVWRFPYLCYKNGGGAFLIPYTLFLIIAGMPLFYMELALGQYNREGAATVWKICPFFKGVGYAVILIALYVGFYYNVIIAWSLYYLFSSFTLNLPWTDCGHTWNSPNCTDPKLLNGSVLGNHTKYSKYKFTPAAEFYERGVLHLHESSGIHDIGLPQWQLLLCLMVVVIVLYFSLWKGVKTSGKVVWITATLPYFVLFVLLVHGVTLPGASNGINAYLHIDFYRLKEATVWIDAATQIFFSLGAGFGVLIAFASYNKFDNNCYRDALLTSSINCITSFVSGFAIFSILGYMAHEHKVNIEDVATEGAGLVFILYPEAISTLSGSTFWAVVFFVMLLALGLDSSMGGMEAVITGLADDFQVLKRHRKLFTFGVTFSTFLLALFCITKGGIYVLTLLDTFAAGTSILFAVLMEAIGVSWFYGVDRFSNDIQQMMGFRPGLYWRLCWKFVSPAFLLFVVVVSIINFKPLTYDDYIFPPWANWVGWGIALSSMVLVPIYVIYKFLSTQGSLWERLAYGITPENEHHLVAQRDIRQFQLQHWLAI
Sodium-dependent dopamine transporter (Homo sapiens), sequence (Q01959 whole entry): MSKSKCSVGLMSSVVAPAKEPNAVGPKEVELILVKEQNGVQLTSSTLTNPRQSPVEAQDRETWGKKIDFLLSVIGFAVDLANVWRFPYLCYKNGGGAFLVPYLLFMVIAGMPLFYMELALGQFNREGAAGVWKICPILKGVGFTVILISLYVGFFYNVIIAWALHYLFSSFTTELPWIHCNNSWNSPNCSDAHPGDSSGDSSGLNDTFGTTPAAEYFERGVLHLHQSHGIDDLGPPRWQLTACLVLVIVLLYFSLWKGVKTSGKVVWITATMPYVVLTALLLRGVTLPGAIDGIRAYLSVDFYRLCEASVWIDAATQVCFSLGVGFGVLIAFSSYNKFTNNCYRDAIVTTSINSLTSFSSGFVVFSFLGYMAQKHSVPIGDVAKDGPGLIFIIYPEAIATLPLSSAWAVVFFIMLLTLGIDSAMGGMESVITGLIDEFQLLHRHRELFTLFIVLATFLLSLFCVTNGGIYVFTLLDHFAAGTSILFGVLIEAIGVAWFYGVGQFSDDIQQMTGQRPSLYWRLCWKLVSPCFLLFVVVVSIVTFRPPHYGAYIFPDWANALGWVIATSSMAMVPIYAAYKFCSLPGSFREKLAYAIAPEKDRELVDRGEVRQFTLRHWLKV
Prostaglandin E2 receptor EP4 subtype (Homo sapiens), sequence (P35408 whole entry): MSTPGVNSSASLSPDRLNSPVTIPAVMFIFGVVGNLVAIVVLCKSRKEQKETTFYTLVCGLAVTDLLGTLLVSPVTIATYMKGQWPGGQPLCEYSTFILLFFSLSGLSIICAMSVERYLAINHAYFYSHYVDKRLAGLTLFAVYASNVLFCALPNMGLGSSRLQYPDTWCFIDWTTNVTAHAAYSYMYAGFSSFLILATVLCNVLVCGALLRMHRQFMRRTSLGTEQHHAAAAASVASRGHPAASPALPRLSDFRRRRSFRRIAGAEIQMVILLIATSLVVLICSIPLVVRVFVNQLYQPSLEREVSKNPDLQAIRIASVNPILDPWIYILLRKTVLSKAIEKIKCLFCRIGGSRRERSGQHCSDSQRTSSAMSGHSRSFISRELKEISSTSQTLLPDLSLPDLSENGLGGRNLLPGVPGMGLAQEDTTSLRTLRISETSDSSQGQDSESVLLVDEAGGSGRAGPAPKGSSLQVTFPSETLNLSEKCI

As to `O=C(NCCCN1CCOCC1)c1cc(-c2ccccc2)on1`, the inhibition (usually the drop in the measured response relative to a control, in per cent) in series [1] is “inactive”.
For `c1ccc(-c2ccc(CNc3nc(-c4ccccn4)nnc3-c3ccccc3)cc2)cc1`, the inhibition in series [2] was 51%; in [3], 65%; in [4], 67%; in series [1], 85%; in series [5] it was 92%; in series [7], 53%. For the same compound, the inhibition amounted to 80% in [8]; 57% in series [10]; 54% in series [11]; 105% in series [13]; 71% in series [15]; 87% in series [16]. Further, the inhibition in [17] is 67%; in series [18] it was 56%; in series [19] it was 53%. Also, the Activity result in [6] and in series [14] was “Non-toxic” in each case. In [9], the inhibition entry was “inactive”. Also, in [12], the inhibition at 10 µM was 86%.
As for `O=C(NCCCCO)c1cc(-c2ccccc2)on1`, the inhibition entry in series [1] is “inactive”.
For the compound `O=C(NCC1CC1)c1cc(-c2ccccc2)on1`, the inhibition result in series [1] was “inactive”.
As for `O=C(NCCCn1ccnc1)c1cc(-c2ccccc2)on1`, in series [1], the inhibition entry was “inactive”.
As to `CCCCNC(=O)c1cc(-c2ccc(F)cc2)on1`, in series [1], the inhibition entry was “inactive”.
